Patent US9150568B2, “Compositions and methods for modulating FXR” (NOVARTIS AG, priority 2010, dated 2015)
pEC50: −log10 of the molar value.

Each molecule was assayed against T1, human Farnesoid X Receptor (FXR) ligand binding domain (GST-FXR LBD) (Homo sapiens, UniProt Q96RI1) (assay: Human GST-FXR LBD co-activator interaction assay (HTRF)). Conditions: GST-FXR LBD / biotin-SRC-1 peptide FRET; response relative to GW4064; read-out: FXR Co-activator interaction assay (EC50).
T1 construct: purchased Invitrogen
T1 sequence (Q96RI1 193-472 isoform Q96RI1-2): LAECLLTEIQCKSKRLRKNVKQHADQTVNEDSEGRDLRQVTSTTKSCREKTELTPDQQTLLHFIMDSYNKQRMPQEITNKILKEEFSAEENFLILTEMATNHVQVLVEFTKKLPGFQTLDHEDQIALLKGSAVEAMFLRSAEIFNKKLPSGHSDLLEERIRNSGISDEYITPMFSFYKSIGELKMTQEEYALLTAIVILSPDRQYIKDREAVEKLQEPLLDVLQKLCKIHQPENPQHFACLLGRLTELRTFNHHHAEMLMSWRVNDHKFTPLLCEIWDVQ
Format: biochemical
From the text: Human GST-FXR LBD Co-activator interaction Assay. The FXR HTRF assay is a biochemical assay measuring the interaction between FXR and a coactivator protein (SRC1). The ligand-induced interaction with a coactivator protein is a critical step in transcriptional activation by FXR. Thus, this is an assay designed to measure FXR agonist activity of compounds.
The ligand-dependent interaction between GST-FXR LBD and a peptide derived from Steroid Receptor Coactivator-1 (SRC-1) was monitored by Fluorescence Resonance Energy Transfer (FRET). […] Test compounds (in DMSO solution) and detection reagents (anti-GST-Cryptate labeled antibody and Streptavidin-XL665 conjugate; CisBio) were added in assay buffer containing 50 mM KF.
A negative control (without Streptavidin-XL665) was run with each assay and represented the background fluorescence. A reference FXR agonist, GW4064, was included in each experiment as positive control. The efficacy of each test compound was compared to that of GW4064. At each concentration, the relative activity of the test compound was expressed as Response %=(Rsample−RDMSO)/(Rpositive−RDMSO), where Rsample is the HTRF response (expressed in Delta F %) for the test compound, Rpositive is the maximal response for GW4064 at saturating concentrations, and RDMSO is the response for DMSO control. The EC50 values were calculated using GraphPad Prism (GraphPad Software) using non-linear regression curve fit (log(agonist) vs. response—variable slope (four parameters)).

Row | SMILES | pEC50
1 | O=C(O)c1cc(F)c2nc(N3C4CC[C@H]3C[C@H](OCc3c(C5CC5C(F)(F)F)noc3C3CC3)C4)sc2c1 (mixture of isomers) [Example 11] | 7.52
2 | O=C(O)c1cc(F)c2nc(N3C4CC[C@H]3CC(OCc3c(-c5ccccc5C(F)(F)F)noc3C3CC3)C4)sc2c1 (stereo in doubt) [Example 1-2B, 2-[3-({5-cyclopropyl-3-[2-(trifluoromethyl)phenyl]-1,2-oxazol-4-yl}methoxy)-8-azabicyclo[3.2.1]octan-8-yl]-4-fluoro-1,3-benzothiazole-6-carboxylic acid] | 9.60
3 | O=C(O)c1ccc2nc(N3C4CC[C@H]3C[C@H](OCc3c(C5CCCCC5C(F)(F)F)noc3C3CC3)C4)sc2c1 (stereo in doubt) [Example 7B, 2-(3-((5-cyclopropyl-3-((trans)-2-(trifluoromethyl)cyclohexyl)isoxazol-4-yl)methoxy)-8-azabicyclo[3.2.1]octan-8-yl)benzo[d]thiazole-6-carboxylic acid] | 7.80
4 | COC(=O)c1ccc(N2C3CC[C@H]2CC(OCc2c(-c4ccccc4OC(F)(F)F)noc2C2CC2)C3)c(F)c1 (stereo in doubt) [Example 23A, Methyl 4-(3-((5-cyclopropyl-3-(2-(trifluoromethoxy)phenyl)isoxazol-4-yl)methoxy)-8-azabicyclo[3.2.1]octan-8-yl)-3-fluorobenzoate] | 8.22
5 | O=C(O)c1ccc(N2C3CC[C@H]2CC(OCc2c(-c4ccccc4OC(F)(F)F)noc2C2CC2)C3)c(F)c1 (stereo in doubt) [Example 23B, 4-(3-((5-cyclopropyl-3-(2-(trifluoromethoxy)phenyl)isoxazol-4-yl)methoxy)-8-azabicyclo[3.2.1]octan-8-yl)-3-fluorobenzoic acid] | 8.40
6 | Fc1cc(-c2nn[nH]n2)ccc1N1C2CC[C@H]1CC(OCc1c(-c3ccccc3OC(F)F)noc1C1CC1)C2 (stereo in doubt) [Example 26B, 5-cyclopropyl-3-(2-(difluoromethoxy)phenyl)-4-(((8-(2-fluoro-4-(2H-tetrazol-5-yl)phenyl)-8-azabicyclo[3.2.1]octan-3-yl)oxy)methyl)isoxazole] | 9.52
7 | O=C(O)c1cn2nc(N3C4CC[C@H]3CC(OCc3c(-c5ccccc5OC(F)(F)F)noc3C3CC3)C4)ccc2n1 (stereo in doubt) [Example 31-1, 6-(3-((5-Cyclopropyl-3-(2-(trifluoromethoxy)phenyl)isoxazol-4-yl)methoxy)-8-azabicyclo[3.2.1]octan-8-yl)imidazo[1,2-b]pyridazine-2-carboxylic acid] | 7.92
8 | O=C(O)c1cnc2cc(N3C4CC[C@H]3CC(OCc3c(-c5ccccc5OC(F)(F)F)noc3C3CC3)C4)ccn12 (stereo in doubt) [Example 32-1, 7-(3-((5-cyclopropyl-3-(2-(trifluoromethoxy)phenyl)isoxazol-4-yl)methoxy)-8-azabicyclo[3.2.1]octan-8-yl)imidazo[1,2-a]pyridine-3-carboxylic acid] | 8.52
9 | COC(=O)c1cc(F)c2nc(N3C4CC[C@H]3CC(OCc3c(-c5ccccc5OC(F)(F)F)noc3C3CC3)C4)sc2c1 (stereo partly drawn) [Example 1-1A, Methyl 2-(3-((5-cyclopropyl-3-(2-(trifluoromethoxy)phenyl)isoxazol-4-yl)methoxy)-8-azabicyclo[3.2.1]octan-8-yl)-4-fluorobenzo[d]thiazole-6-carboxylate] | 7.85
10 | COC(=O)c1cc(F)c2nc(N3C4CC[C@H]3CC(OCc3c(-c5ccccc5C(F)(F)F)noc3C3CC3)C4)sc2c1 (stereo partly drawn) [Example 1-2A] | 7.55
11 | COc1cc(C(=O)O)cc2sc(N3C4CC[C@H]3CC(OCc3c(-c5ccccc5OC(F)(F)F)noc3C3CC3)C4)nc12 (stereo partly drawn) [Example 2-1B, 2-(3-((5-cyclopropyl-3-(2-(trifluoromethoxy)phenyl)isoxazol-4-yl)methoxy)-8-azabicyclo[3.2.1]octan-8-yl)-4-methoxybenzo[d]thiazole-6-carboxylic acid] | 9.77
12 | COc1cc(C(=O)O)cc2sc(N3C4CC[C@H]3CC(OCc3c(-c5ccccc5C(F)(F)F)noc3C3CC3)C4)nc12 (stereo partly drawn) [Example 2-2B] | 8.52
13 | CCOC(=O)c1ccc2nc(N3C4CC[C@H]3CC(OCc3c(-c5ccccc5OC(F)(F)F)noc3C3CC3)C4)sc2c1 (stereo partly drawn) [Example 3A, ethyl 2-(3-((5-cyclopropyl-3-(2-(trifluoromethoxy)phenyl)isoxazol-4-yl)methoxy)-8-azabicyclo[3.2.1]octan-8-yl)benzo[d]thiazole-6-carboxylate] | 7.70
14 | O=C(O)c1ccc2nc(N3C4CC[C@H]3CC(OCc3c(-c5ccccc5OC(F)(F)F)noc3C3CC3)C4)sc2c1 (stereo partly drawn) [Example 3B] | 9.13
15 | CC(C)(O)c1ccc2nc(N3C4CC[C@H]3CC(OCc3c(-c5ccccc5OC(F)(F)F)noc3C3CC3)C4)sc2c1 (stereo partly drawn) [Example 4, 2-(2-(3-((5-cyclopropyl-3-(2-(trifluoromethoxy)phenyl)isoxazol-4-yl)methoxy)-8-azabicyclo[3.2.1]octan-8-yl)benzo[d]thiazol-6-yl)propan-2-ol] | 7.66
16 | NC(=O)c1cc(F)c2nc(N3C4CC[C@H]3C[C@H](OCc3c(-c5ccccc5OC(F)(F)F)noc3C3CC3)C4)sc2c1 [Example 5-1] | 8.12
17 | NC(=O)c1ccc(N2C3CC[C@H]2C[C@H](OCc2c(-c4ccccc4OC(F)(F)F)noc2C2CC2)C3)nc1 [Example 5-2] | 8.42
18 | Cc1cc(C(N)=O)nc(N2C3CC[C@H]2C[C@H](OCc2c(-c4ccccc4OC(F)F)noc2C2CC2)C3)n1 [Example 5-3] | 7.70
19 | CCOC(=O)c1ccc2nc(N3C4CC[C@H]3C[C@H](OCc3c(-c5ccccc5C(F)(F)F)noc3C3CC3)C4)sc2c1 [Example 6-1A] | 7.20
20 | O=C(O)c1ccc2nc(N3C4CC[C@H]3C[C@H](OCc3c(-c5ccccc5C(F)(F)F)noc3C3CC3)C4)sc2c1 [Example 6-1B] | 9.17

Row | SMILES | pEC50
21 | CCOC(=O)c1ccc2nc(N3C4CC[C@H]3C[C@H](OCc3c(-c5ccccc5OC(F)F)noc3C3CC3)C4)sc2c1 [Example 6-2A] | 7.29
22 | O=C(O)c1ccc2nc(N3C4CC[C@H]3C[C@H](OCc3c(-c5ccccc5OC(F)F)noc3C3CC3)C4)sc2c1 [Example 6-2B] | 9.44
23 | COC(=O)c1cc(F)c2nc(N3C4CC[C@H]3C[C@H](OCc3c(-c5ccccc5OC(F)F)noc3C3CC3)C4)sc2c1 [Example 6-3A] | 7.92
24 | O=C(O)c1cc(F)c2nc(N3C4CC[C@H]3C[C@H](OCc3c(-c5ccccc5OC(F)F)noc3C3CC3)C4)sc2c1 [Example 6-3B] | 9.57
25 | COc1cc(C(=O)O)cc2sc(N3C4CC[C@H]3C[C@H](OCc3c(-c5ccccc5OC(F)F)noc3C3CC3)C4)nc12 [Example 6-4] | 9.74
26 | CCOC(=O)c1ccc2nc(N3C4CC[C@H]3C[C@H](OCc3c(-c5c(F)cccc5F)noc3C3CC3)C4)sc2c1 [Example 6-5A] | 8.42
27 | O=C(O)c1ccc2nc(N3C4CC[C@H]3C[C@H](OCc3c(-c5c(F)cccc5F)noc3C3CC3)C4)sc2c1 [Example 6-5B] | 8.25
28 | COC(=O)c1cc(OC)c2nc(N3C4CC[C@H]3C[C@H](OCc3c(-c5c(F)cccc5F)noc3C3CC3)C4)sc2c1 [Example 6-6A] | 7.85
29 | COc1cc(C(=O)O)cc2sc(N3C4CC[C@H]3C[C@H](OCc3c(-c5c(F)cccc5F)noc3C3CC3)C4)nc12 [Example 6-6B] | 9.52
30 | COC(=O)c1cc(F)c2nc(N3C4CC[C@H]3C[C@H](OCc3c(-c5c(F)cccc5F)noc3C3CC3)C4)sc2c1 [Example 6-7A] | 7.85
31 | O=C(O)c1cc(F)c2nc(N3C4CC[C@H]3C[C@H](OCc3c(-c5c(F)cccc5F)noc3C3CC3)C4)sc2c1 [Example 6-7B] | 9.24
32 | O=C(O)c1cc(F)c2nc(N3C4CC[C@H]3C[C@H](OCc3c(C5CCCCC5C(F)(F)F)noc3C3CC3)C4)sc2c1 (stereo partly drawn) [Example 8-1] | 8.40
33 | COc1cc(C(=O)O)cc2sc(N3C4CC[C@H]3C[C@H](OCc3c(C5CCCCC5C(F)(F)F)noc3C3CC3)C4)nc12 (stereo partly drawn) [Example 8-2] | 8.62
34 | CC1(C)CCC(c2noc(C3CC3)c2CO[C@@H]2CC3CC[C@@H](C2)N3c2nc3ccc(C(=O)O)cc3s2)CC1 [Example 8-3] | 7.74
35 | CC1(C)CCC(c2noc(C3CC3)c2CO[C@@H]2CC3CC[C@@H](C2)N3c2nc3c(F)cc(C(=O)O)cc3s2)CC1 [Example 8-4] | 8.05
36 | O=C(O)c1cnc(N2C3CC[C@H]2C[C@H](OCc2c(C4CCCCC4C(F)(F)F)noc2C2CC2)C3)cn1 (stereo partly drawn) [Example 8-5B] | 6.96
37 | Cc1cc(C(=O)O)nc(N2C3CC[C@H]2C[C@H](OCc2c(C4CCCCC4C(F)(F)F)noc2C2CC2)C3)n1 (stereo partly drawn) [Example 8-6B] | 7.00
38 | Cc1cc(C(=O)O)nc(N2C3CC[C@H]2C[C@H](OCc2c(C4CCCCC4)noc2C2CC2)C3)n1 [Example 8-7B] | 6.89
39 | O=C(O)c1cc(F)c2nc(N3C4CC[C@H]3C[C@H](OCc3c(C5CCCCC5)noc3C3CC3)C4)sc2c1 [Example 9-1] | 8.30
